The results in this text go back to patent US8846330B2, “Methods and kits for the diagnosis of RyR1-related diseases” (The Henry M. Jackson Foundation for the Advancement of …, priority 2008, dated 2014).

Each structure is given as a SMILES string.

This assay has as its system lymphocyte cells. In words: 4CmC-induced adenosine plus inosine in cultured swine lymphocytes (Example 2). The conditions noted are these: for adenosine plus inosine level upon stimulation with 4CmC, mean±SEM: 5 mM 4CmC. It is filed as cell-based. The procedure: Lymphocyte cells were isolated from whole arterial blood sample (40 ml) obtained from homozygous recessive MHS (n=5) and normal (n=3) swine by the Ficoll-Hypaque centrifugation technique. Lymphocyte cells were then cultured in RPMI-1640 media supplemented with 10% fetal bovine serum plus 100 units/liter penicillin at 37° C. under 5% CO2 for 2 to 3 weeks. After cell culture period, cell's (5−15×10^4 cells) were suspended in Hanks' balanced salt solution (HBSS)+1% bovine serum albumin and treated with specific RyR1 agonist 4-chloro-m-cresol (4CmC, 5 mM) at 37° C. in the presence and absence of inhibitor of adenosine deaminase erythro-9-(2-hydroxy-3-nonyl) adenine (EHNA, 0.1 mM) for 30 minutes. After purification using 12% HClO4 followed by centrifugation (10 minutes, 4000 RPM), aliquot of sample (50 μl) was assayed for adenosine and inosine content using high performance liquid chromatography (HPLC). Data are normalized to per 1 million cells, compared using one way ANOVA, and presented as mean±SEM. P<0.05 considered significant.

Regarding `Cc1cc(O)ccc1Cl` [4CmC, 4-chloro-m-cresol], the “adenosine plus inosine level upon stimulation with 4CmC, mean±SEM” value is, setting by setting: (MHS swine (n=5)) 8.06 ± 0.9 µM; (normal swine (n=3)) 1.16 ± 0.3 µM. For the same molecule, the “increase of nucleoside production on 4CmC stimulation” value (lymphocytes from MHS swine) is recorded as “nine-fold increase”. For the same molecule, for the setting “lymphocytes from normal swine”, the “effect of 4CmC stimulation on nucleoside (adenosine plus inosine) production” value was “minimal, if any, effect”.
